Measured values taken from ChEMBL document CHEMBL5608163, “Structure modification of anoplin for fighting resistant bacteria” (Eur J Med Chem, 2024).
Values after ≈ are worked out from the molar mass of the structure shown. Square brackets hold non-standard residues; d marks the D form. Peptide text beside a SMILES is read from it. NMeR = CN[C@@H](CCCNC(=N)N)C(=O)O; NMeL = CN[C@@H](CC(C)C)C(=O)O; NMeK = CN[C@@H](CCCCN)C(=O)O

Assays:
Klebsiella pneumoniae [1] = assay: Antimicrobial activity against Klebsiella pneumoniae ATCC 700603 assessed as reduction in microbial growth incubated for 18 hrs by Mueller-Hinton Broth based microdilution assay; format: functional
Staphylococcus aureus [2] = assay: Antibacterial activity against Staphylococcus aureus ATCC 25923 assessed as reduction in bacterial growth incubated for 18 hrs by Mueller-Hinton Broth based microdilution assay; format: functional
Pseudomonas aeruginosa [3] = assay: Antimicrobial activity against Pseudomonas aeruginosa ATCC 27853 assessed as reduction in microbial growth incubated for 18 hrs by Mueller-Hinton Broth based microdilution assay; format: functional
Escherichia coli [4] = assay: Antibacterial activity against Escherichia coli ATCC 25922 assessed as reduction in bacterial growth incubated for 18 hrs by Mueller-Hinton Broth based microdilution assay; format: functional
Bacillus subtilis [5] = assay: Antimicrobial activity against Bacillus subtilis ATCC 23857 assessed as reduction in microbial growth incubated for 18 hrs by Mueller-Hinton Broth based microdilution assay; format: functional
Acinetobacter baumannii = assay: Antibacterial activity against Acinetobacter baumannii ATCC 19606 assessed as reduction in bacterial growth incubated for 18 hrs by CLSI-based Mueller-Hinton broth dilution method; format: functional
Escherichia coli [6] = assay: Antibacterial activity against Escherichia coli ML-35 ATCC 43837 assessed as reduction in bacterial growth incubated for 18 hrs by CLSI-based Mueller-Hinton broth dilution method; format: functional
Pseudomonas aeruginosa [7] = assay: Antibacterial activity against Pseudomonas aeruginosa ATCC 27853 assessed as reduction in bacterial growth incubated for 18 hrs by CLSI-based Mueller-Hinton broth dilution method; format: functional
Klebsiella pneumoniae [8] = assay: Antibacterial activity against Klebsiella pneumoniae ATCC 700603 assessed as reduction in bacterial growth incubated for 18 hrs by CLSI-based Mueller-Hinton broth dilution method; format: functional
Erythrocyte = assay: Hemolytic activity in mouse erythrocyte assessed as hemolysis incubated for 1 hr by microplate reader analysis; format: toxicity, cell-based
Bacillus subtilis [9] = assay: Antibacterial activity against Bacillus subtilis ATCC 23857 assessed as reduction in bacterial growth incubated for 18 hrs by CLSI-based Mueller-Hinton broth dilution method; format: functional
Staphylococcus aureus [10] = assay: Antimicrobial activity against Staphylococcus aureus ATCC 25923 assessed as reduction in microbial growth incubated for 18 hrs by CLSI-based Mueller-Hinton broth dilution method; format: functional
[11] = tested on: Staphylococcus epidermidis; assay: Antibacterial activity against Staphylococcus epidermidis ATCC 12228 assessed as reduction in bacterial growth incubated for 18 hrs by CLSI-based Mueller-Hinton broth dilution method; format: functional

| SMILES | MIC (Klebsiella pneumoniae [1]) [µM] | MIC (Staphylococcus aureus [2]) [µM] | MIC (Pseudomonas aeruginosa [3]) [µM] | MIC (Escherichia coli [4]) [µM] | MIC (Bacillus subtilis [5]) [µM] | MIC (Acinetobacter baumannii) [µM] | MIC (Escherichia coli [6]) [µM] | MIC (Pseudomonas aeruginosa [7]) [µM] | MIC (Klebsiella pneumoniae [8]) [µM] | HC10 (Erythrocyte) [µM] | MIC (Bacillus subtilis [9]) [µM] | MIC (Staphylococcus aureus [10]) [µM] | MIC [11] [µM] |
| --- | --- | --- | --- | --- | --- | --- | --- | --- | --- | --- | --- | --- | --- |
| CC[C@H](C)[C@H](NC(=O)[C@H](CCCNC(=N)N)N(C)C(=O)[C@H](CCCCN)NC(=O)[C@H](CC(C)C)NC(=O)[C@H](CC(C)C)NC(=O)CN)C(=O)N[C@@H](CCCCN)C(=O)N[C@H](C(=O)N[C@@H](CC(C)C)C(=O)N[C@@H](CC(C)C)C(N)=O)[C@@H](C)O (H-GLLK[NMeR]IKTLL-NH2) | > 128 | > 128 | 128 | > 128 | 128 | – | – | – | – | – | – | – | – |
| CCCCCCCCCCCCCCCCC(=O)NCCCC[C@@H](NC(=O)[C@@H](NC(=O)[C@H](CCCNC(=N)N)NC(=O)[C@@H](CCCCN)NC(=O)[C@H](CC(C)C)NC(=O)[C@H](CC(C)C)NC(=O)CN)[C@@H](C)CC)C(=O)N[C@H](C(=O)N[C@@H](CC(C)C)C(=O)N[C@@H](CC(C)C)C(N)=O)[C@@H](C)O | – | – | – | – | – | 16 (≈ 22.5 µg/mL) | 64 (≈ 90 µg/mL) | 64 (≈ 90 µg/mL) | 64 (≈ 90 µg/mL) | 16 | 16 (≈ 22.5 µg/mL) | 64 | 32 (≈ 45 µg/mL) |
| CC[C@H](C)[C@H](NC(=O)[C@H](CCCNC(=N)N)NC(=O)[C@H](CCCCN)N(C)C(=O)[C@H](CC(C)C)NC(=O)[C@H](CC(C)C)NC(=O)CN)C(=O)N[C@@H](CCCCN)C(=O)N[C@H](C(=O)N[C@@H](CC(C)C)C(=O)N[C@@H](CC(C)C)C(N)=O)[C@@H](C)O (H-GLL[NMeK]RIKTLL-NH2) | > 128 | > 128 | 64 | > 128 | 128 | – | – | – | – | – | – | – | – |
| CCCCCCCCCCCCCCC(=O)NCCCC[C@@H](NC(=O)[C@H](CC(C)C)NC(=O)[C@H](CC(C)C)NC(=O)CN)C(=O)N[C@@H](CCCNC(=N)N)C(=O)N[C@H](C(=O)N[C@H](CCCCN)C(=O)N[C@H](C(=O)N[C@@H](CC(C)C)C(=O)N[C@@H](CC(C)C)C(N)=O)[C@@H](C)O)[C@@H](C)CC | – | – | – | – | – | 8 (≈ 11 µg/mL) | 8 (≈ 11 µg/mL) | 16 (≈ 22 µg/mL) | 32 (≈ 44.1 µg/mL) | 32 | 4 (≈ 5.51 µg/mL) | 8 | 4 (≈ 5.51 µg/mL) |
| CCCCCCCCC(=O)NCCCC[C@@H](NC(=O)[C@@H](NC(=O)[C@H](CCCNC(=N)N)NC(=O)[C@@H](CCCCN)NC(=O)[C@H](CC(C)C)NC(=O)[C@H](CC(C)C)NC(=O)CN)[C@@H](C)CC)C(=O)N[C@H](C(=O)N[C@@H](CC(C)C)C(=O)N[C@@H](CC(C)C)C(N)=O)[C@@H](C)O | – | – | – | – | – | 8 (≈ 10.4 µg/mL) | 4 (≈ 5.18 µg/mL) | 16 (≈ 20.7 µg/mL) | 32 (≈ 41.4 µg/mL) | 256 | 2 (≈ 2.59 µg/mL) | 8 | 4 (≈ 5.18 µg/mL) |
| CC[C@H](C)[C@H](NC(=O)[C@H](CCCNC(=N)N)NC(=O)[C@H](CCCCN)NC(=O)[C@H](CC(C)C)NC(=O)[C@H](CC(C)C)N(C)C(=O)CN)C(=O)N[C@@H](CCCCN)C(=O)N[C@H](C(=O)N[C@@H](CC(C)C)C(=O)N(C)[C@@H](CC(C)C)C(N)=O)[C@@H](C)O (H-G[NMeL]LKRIKTL[NMeL]-NH2) | > 128 | > 128 | 128 | > 128 | > 128 | – | – | – | – | – | – | – | – |
| CC[C@H](C)[C@H](NC(=O)[C@H](CCCNC(=N)N)N(C)C(=O)[C@H](CCCCN)N(C)C(=O)[C@H](CC(C)C)NC(=O)[C@H](CC(C)C)NC(=O)CN)C(=O)N[C@@H](CCCCN)C(=O)N[C@H](C(=O)N[C@@H](CC(C)C)C(=O)N[C@@H](CC(C)C)C(N)=O)[C@@H](C)O (H-GLL[NMeK][NMeR]IKTLL-NH2) | > 128 | > 128 | > 128 | > 128 | > 128 | – | – | – | – | – | – | – | – |
| CCCCCCCCCCCCCCCCC(=O)NCCCC[C@@H](NC(=O)[C@H](CC(C)C)NC(=O)[C@H](CC(C)C)NC(=O)CN)C(=O)N[C@@H](CCCNC(=N)N)C(=O)N[C@H](C(=O)N[C@H](CCCCN)C(=O)N[C@H](C(=O)N[C@@H](CC(C)C)C(=O)N[C@@H](CC(C)C)C(N)=O)[C@@H](C)O)[C@@H](C)CC | – | – | – | – | – | 16 (≈ 22.5 µg/mL) | 64 (≈ 90 µg/mL) | 64 (≈ 90 µg/mL) | 128 (≈ 180 µg/mL) | > 16 | 8 (≈ 11.2 µg/mL) | 32 | 64 (≈ 90 µg/mL) |
| CCCCCCCCCCCCC(=O)NCCCC[C@@H](NC(=O)[C@@H](NC(=O)[C@H](CCCNC(=N)N)NC(=O)[C@@H](CCCCN)NC(=O)[C@H](CC(C)C)NC(=O)[C@H](CC(C)C)NC(=O)CN)[C@@H](C)CC)C(=O)N[C@H](C(=O)N[C@@H](CC(C)C)C(=O)N[C@@H](CC(C)C)C(N)=O)[C@@H](C)O | – | – | – | – | – | 4 (≈ 5.4 µg/mL) | 16 (≈ 21.6 µg/mL) | 8 (≈ 10.8 µg/mL) | 16 (≈ 21.6 µg/mL) | 32 | 2 (≈ 2.7 µg/mL) | 4 | 4 (≈ 5.4 µg/mL) |
